How the values were obtained:
[1] = molecular target: T1, hRIPK1 (aa 1-375) fusion protein (Homo sapiens, UniProt Q13546); test: ADP-Glo kinase assay: catalytic activity of RIPK1 (autophosphorylation, conversion of ATP to ADP); type: biochemical
T1 construct: hRIPK1 (aa 1-375) fusion protein
T1 sequence (Q13546 1-375): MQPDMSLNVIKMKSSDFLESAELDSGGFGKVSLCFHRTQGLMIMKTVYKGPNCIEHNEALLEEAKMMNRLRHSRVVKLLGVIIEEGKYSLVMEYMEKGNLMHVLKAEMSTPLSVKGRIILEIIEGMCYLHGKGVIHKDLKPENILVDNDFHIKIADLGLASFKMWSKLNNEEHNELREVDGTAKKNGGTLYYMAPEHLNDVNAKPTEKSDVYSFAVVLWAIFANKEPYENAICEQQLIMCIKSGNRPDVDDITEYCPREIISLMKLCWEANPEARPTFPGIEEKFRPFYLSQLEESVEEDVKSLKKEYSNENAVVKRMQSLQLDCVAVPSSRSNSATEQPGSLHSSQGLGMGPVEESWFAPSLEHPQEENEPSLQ
Summary of the method: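 hRIPK1 (aa 1-375) fusion protein (3.6 μg/ml final) was preincubated 30 min at rt with compound (33300-1.69 nM, 1% DMSO), then 50 μM ATP was added for 240 min at rt. ADP from autophosphorylation was measured by ADP-Glo luminescence and curves fitted by nonlinear regression.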

[2] = system: U937 cells; test: Cellular assay in U937 cells: activity of RIPK1 inhibitors on TNFα/zVAD.fmk-induced cell death (necroptosis), CellTiter 96 AQueous (MTS) readout; type: cell-based; details: Homo sapiens, U-937
Summary of the method: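 Necroptosis was measured by viable-cell MTS reduction (4 h, absorbance 490 nm) after overnight (18–24 h) 37° C culture. Cell suspensions of U937 cells carried TNFα (100 ng/ml) plus zVAD.fmk (50 μM) before compound was added. A 10-point curve (10 μM–0.26 nM or 1 μM–0.07 nM) was run in duplicate, normalised to the control lacking TNFα/zVAD.fmk.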

Structure (SMILES) | IC50 [1] | IC50 [2]
N#Cc1cc(F)cc([C@@H]2CCON2C(=O)[C@H]2CC[C@H](Cc3cnccn3)CC2)c1 [compound 245, trans-3-fluoro-5-[(3S)-2-[4-(pyrazin-2-ylmethyl)cyclohexanecarbonyl]isoxazolidin-3-yl]benzonitrile] | 0.017 µM | 0.016 µM
Cc1ncc(F)cc1C[C@H]1CC[C@H](C(=O)N2OCC[C@H]2c2cncc(F)c2)CC1 [compound 178, trans-[4-[(5-fluoro-2-methyl-3-pyridyl)methyl]cyclohexyl]-[(3S)-3-(5-fluoro-3-pyridyl)isoxazolidin-2-yl]methanone] | 0.038 µM | 0.006 µM
Cc1ncc(F)cc1C[C@H]1CC[C@H](C(=O)N2OCC[C@H]2c2cnccn2)CC1 [compound 180, trans-[4-[(5-fluoro-2-methyl-3-pyridyl)methyl]cyclohexyl]-[(3S)-3-pyrazin-2-ylisoxazolidin-2-yl]methanone] | 0.032 µM | 0.011 µM
N#Cc1cc(F)cc([C@@H]2CCON2C(=O)[C@H]2CC[C@H](Cc3ccc4c(c3)C(=O)NC4)CC2)c1 [compound 144, trans-3-fluoro-5-[(3S)-2-[4-[(3-oxoisoindolin-5-yl)methyl]cyclohexanecarbonyl]isoxazolidin-3-yl]benzonitrile] | 0.022 µM | 0.003 µM
O=C([C@H]1CC[C@H](Cn2cnc3ccccc32)CC1)N1OCC[C@H]1c1cncc(F)c1 [compound 9, trans-(4-((1H-benzo[d]imidazol-1-yl)methyl)cyclohexyl)((S)-3-(5-fluoropyridin-3-yl)isoxazolidin-2-yl)methanone] | 0.113 µM | 0.174 µM
Cc1cn2ncc(C[C@H]3CC[C@H](C(=O)N4OCC[C@H]4c4ccc(F)cc4)CC3)cc2n1 [compound 324, trans-[4-[(3S)-2-[4-[(2-methylimidazo[1,2-b]pyridazin-7-yl)methyl]cyclohexanecarbonyl]isoxazolidin-3-yl]phenyl]] | 0.034 µM | 0.035 µM
N#Cc1cc(F)cc([C@@H]2CCON2C(=O)[C@H]2CC[C@H](Cc3cc(F)c4ncnn4c3)CC2)c1 [compound 206, trans-3-fluoro-5-[(3S)-2-[4-[(8-fluoro-[1,2,4]triazolo[1,5-a]pyridin-6-yl)methyl]cyclohexanecarbonyl]isoxazolidin-3-yl]benzonitrile] | 0.016 µM | 0.009 µM
CC1(Oc2cnc3ccn(C[C@H]4CC[C@H](C(=O)N5OCC[C@H]5c5cc(F)cc(C#N)c5)CC4)c3c2)CC1 [compound 184, trans-3-fluoro-5-[(3S)-2-[4-[[6-(1-methylcyclopropoxy)pyrrolo[3,2-b]pyridin-1-yl]methyl]cyclohexanecarbonyl]isoxazolidin-3-yl]benzonitrile] | 0.026 µM | 0.019 µM
Cc1c(C#N)ncn1C[C@H]1CC[C@H](C(=O)N2OCC[C@H]2c2cc(F)cc(F)c2)CC1 [compound 91, trans-1-((4-((S)-3-(3,5-difluorophenyl)isoxazolidine-2-carbonyl)cyclohexyl)methyl)-5-methyl-1H-imidazole-4-carbonitrile] | 0.039 µM | 0.067 µM
Cc1cnc([C@@H]2CCON2C(=O)[C@H]2CC[C@H](Cc3cc(C)c4ncnn4c3)CC2)cn1 [compound 409, trans-[(3S)-3-(5-methylpyrazin-2-yl)-1,2-oxazolidin-2-yl]-[4-[(8-methyl-[1,2,4]triazolo[1,5-a]pyridin-6-yl)methyl]cyclohexyl]methanone] | 0.046 µM | 0.066 µM
Cc1cn2cc(C[C@H]3CC[C@H](C(=O)N4OCC[C@H]4c4cc(F)cc(C#N)c4)CC3)ccc2n1 [compound 225, trans-3-fluoro-5-[(3S)-2-[4-[(2-methylimidazo[1,2-a]pyridin-6-yl)methyl]cyclohexanecarbonyl]isoxazolidin-3-yl]benzonitrile] | 0.019 µM | 0.007 µM
CNC(=O)c1ccc(F)c(C[C@H]2CC[C@H](C(=O)N3OCC[C@H]3c3cnccn3)CC2)c1 [compound 175, trans-4-fluoro-N-methyl-3-[[4-[(3S)-3-pyrazin-2-ylisoxazolidine-2-carbonyl]cyclohexyl]methyl]benzamide] | 0.014 µM | 0.007 µM
Cc1nc([C@@H]2CCON2C(=O)[C@H]2CC[C@H](Cn3ncc4ccc(C#N)cc43)CC2)cs1 [compound 204, trans-1-[[4-[(3S)-3-(2-methylthiazol-4-yl)isoxazolidine-2-carbonyl]cyclohexyl]methyl]indazole-6-carbonitrile] | 0.021 µM | 0.002 µM
Cc1cn2nc(C[C@H]3CC[C@H](C(=O)N4OCC[C@H]4c4cc(F)cc(C#N)c4)CC3)cc(C)c2n1 [compound 290, trans-3-[(3S)-2-[4-[(2,8-dimethylimidazo[1,2-b]pyridazin-6-yl)methyl]cyclohexanecarbonyl]isoxazolidin-3-yl]-5-fluoro-benzonitrile] | 0.011 µM | 0.004 µM
N#Cc1cc(F)cc([C@@H]2CCON2C(=O)[C@H]2CC[C@H](Cn3ncc4c(F)cc(C#N)cc43)CC2)c1 [compound 32, trans-1-((4-((S)-3-(3-cyano-5-fluorophenyl)isoxazolidine-2-carbonyl)cyclohexyl)methyl)-4-fluoro-1H-indazole-6-carbonitrile] | 0.019 µM | 0.003 µM
COc1cc(C[C@H]2CC[C@H](C(=O)N3OCC[C@H]3c3cncc(C)c3)CC2)cn2nc(C)nc12 [compound 383, trans-[4-[(8-methoxy-2-methyl-[1,2,4]triazolo[1,5-a]pyridin-6-yl)methyl]cyclohexyl]-[(3S)-3-(5-methylpyridin-3-yl)-1,2-oxazolidin-2-yl]methanone] | 0.081 µM | 0.047 µM
Cn1nccc1C[C@H]1CC[C@H](C(=O)N2OCC[C@H]2c2cc(F)cc(F)c2)CC1 [compound 307, trans-[(3S)-3-(3,5-difluorophenyl)isoxazolidin-2-yl]-[4-[(2-methylpyrazol-3-yl)methyl]cyclohexyl]methanone] | 0.015 µM | 0.002 µM
Cc1ccc([C@@H]2CCON2C(=O)[C@H]2CC[C@H](Cc3cc(C)c4nnc(C)n4c3)CC2)cn1 [compound 365, trans-[4-(3,8-Dimethyl-[1,2,4]triazolo[4,3-a]pyridin-6-ylmethyl)-cyclohexyl]-[(S)-3-(6-methyl-pyridin-3-yl)-isoxazolidin-2-yl]-methanone] | 0.097 µM | 0.071 µM
Cc1ncc(C[C@H]2CC[C@H](C(=O)N3OCC[C@H]3c3cc(F)cc(C#N)c3)CC2)cn1 [compound 263, trans-3-fluoro-5-[(3S)-2-[4-[(2-methylpyrimidin-5-yl)methyl]cyclohexanecarbonyl]isoxazolidin-3-yl]benzonitrile] | 0.041 µM | 0.059 µM
CNC(=O)c1ccc(F)c(C[C@H]2CC[C@H](C(=O)N3OCC[C@H]3c3cncc(F)c3)CC2)c1 [compound 172, trans-4-fluoro-3-[[4-[(3S)-3-(5-fluoro-3-pyridyl)isoxazolidine-2-carbonyl]cyclohexyl]methyl]-N-methyl-benzamide] | 0.016 µM | 0.009 µM
Cc1ncc([C@@H]2CCON2C(=O)[C@H]2CC[C@H](Cc3cc(F)c4ncnn4c3)CC2)cc1F [compound 392, trans-[(3S)-3-(5-fluoro-6-methylpyridin-3-yl)-1,2-oxazolidin-2-yl]-[4-[(8-fluoro-[1,2,4]triazolo[1,5-a]pyridin-6-yl)methyl]cyclohexyl]methanone] | 0.032 µM | 0.018 µM
